From ChEMBL document CHEMBL1144079, “7-Hydroxyceratinamine, a new cyanoformamide-containing metabolite from a sponge, Aplysinella sp” (J Nat Prod, 1999) come the findings set out here.

The source made the active and inactive calls. The rule behind the calls is not given here.

For the assay, the system named is U-937. The experiment in a line: Induction of apoptosis in human U937 cells. Format: functional, cell-based.
For the compound `N#CC(=O)NCCCOc1c(Br)cc(C(O)CN)cc1Br` (centres undefined), the outcome was inactive.

Turning to `C[N+](C)(C)CCc1cc(Br)c(O)c(Br)c1`, the result was inactive.

`NCCCOc1c(Br)cc(CCN)cc1Br`: the outcome was inactive.

`N#CC(=O)NCCCOc1c(Br)cc(CCN)cc1Br`: the result was inactive.
